Experimental data from ChEMBL document CHEMBL4417631, “Oral peptide inhibitors of interleukin-23 receptor and their use to treat inflammatory bowel diseases” (2017).
Where a SMILES comes first, the peptide text is derived from it. [ ]: non-standard residue; d: D form. hLeu = CC(C)CC[C@H](N)C(=O)O

What was measured:
Interleukin-23 receptor [1] = target: T1, Interleukin-23 receptor (Homo sapiens, UniProt Q5VWK5); assay: Inhibition of interleukin-23 binding to human interleukin-23 receptor incubated for 2 hrs by competitive binding ELISA
T1 sequence (Q5VWK5 whole entry): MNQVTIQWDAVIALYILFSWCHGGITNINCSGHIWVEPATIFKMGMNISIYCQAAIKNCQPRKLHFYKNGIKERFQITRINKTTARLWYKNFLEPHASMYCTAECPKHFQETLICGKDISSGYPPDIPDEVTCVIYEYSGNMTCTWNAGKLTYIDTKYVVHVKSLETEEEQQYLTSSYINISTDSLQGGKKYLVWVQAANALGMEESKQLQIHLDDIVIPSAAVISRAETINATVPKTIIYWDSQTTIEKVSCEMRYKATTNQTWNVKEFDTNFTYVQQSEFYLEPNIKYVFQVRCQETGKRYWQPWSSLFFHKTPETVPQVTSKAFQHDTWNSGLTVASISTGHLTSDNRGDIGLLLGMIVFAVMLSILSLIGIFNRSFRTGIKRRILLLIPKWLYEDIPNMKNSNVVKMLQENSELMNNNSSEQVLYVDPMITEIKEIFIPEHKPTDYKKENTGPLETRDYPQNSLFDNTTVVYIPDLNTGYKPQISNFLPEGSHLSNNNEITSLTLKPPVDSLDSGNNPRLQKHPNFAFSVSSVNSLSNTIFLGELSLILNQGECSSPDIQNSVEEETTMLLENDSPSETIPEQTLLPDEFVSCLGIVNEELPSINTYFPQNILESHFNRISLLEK

[2] = Inhibition of interleukin-23 binding to rat interleukin-23 receptor incubated for 2 hrs by competitive binding ELISA
Interleukin-23 receptor [3] = target: T1, Interleukin-23 receptor; assay: Inhibition of interleukin-23 receptor in human DB cells assessed as reduction in IL-23-stimulated STAT3 phosphorylation incubated for 30 mins by HTRF assay; assay type: cell-based

CC(=O)N[C@@H](CS)C(=O)N[C@@H](CCCNC(N)=O)C(=O)N[C@H](C(=O)N[C@@H](Cc1c[nH]c2ccccc12)C(=O)N[C@@H](CCC(N)=O)C(=O)N[C@@H](CS)C(=O)N[C@@H](Cc1ccc(O)cc1)C(=O)N[C@@H](Cc1c[nH]c2ccccc12)C(=O)N[C@@H](CCCNC(=N)N)C(=O)N[C@H](C(=O)N[C@@H](Cc1ccccc1)C(=O)NCC(=O)NCCC(=O)N[C@H](CCCCN)C(N)=O)C(C)C)[C@@H](C)O
IC50 (Interleukin-23 receptor [1]): 50 nM | IC50 [2]: 76 nM

CC(=O)N[C@@H](CS)C(=O)N[C@@H](CCCNC(=N)N)C(=O)N[C@H](C(=O)N[C@@H](Cc1c[nH]c2ccccc12)C(=O)N[C@@H](CCC(N)=O)C(=O)N[C@@H](CS)C(=O)N[C@@H](Cc1ccc(O)cc1)C(=O)N[C@@H](Cc1c[nH]c2ccccc12)C(=O)N[C@@H](CCCNC(=N)N)C(=O)N[C@@H](CCC(=O)O)C(=O)N[C@@H](Cc1ccc(O)cc1)C(=O)NCC(=O)N[C@@H](C)C(=O)N[C@H](CCCCN)C(N)=O)[C@@H](C)O
IC50 (Interleukin-23 receptor [3]): 8 nM | IC50 [2]: 80 nM

CC(=O)N[C@@H](CS)C(=O)N[C@@H](CO)C(=O)N[C@H](C(=O)N[C@@H](Cc1c[nH]c2ccccc12)C(=O)N[C@@H](CCC(N)=O)C(=O)N[C@@H](CS)C(=O)N[C@@H](Cc1ccc(O)cc1)C(=O)N[C@@H](Cc1c[nH]c2ccccc12)C(=O)N[C@@H](CO)C(=O)N[C@@H](CCCCN)C(=O)N[C@@H](CCC(N)=O)C(=O)N[C@@H](CO)C(=O)NCC(=O)NCC(=O)N[C@@H](CO)C(N)=O)[C@@H](C)O (Ac-CSTWQCYWSKQSGGS-NH2)
IC50 [2]: 204 nM

CC(=O)N[C@@H](CS)C(=O)N[C@@H](CCCNC(=N)N)C(=O)N[C@H](C(=O)N[C@@H](Cc1c[nH]c2ccccc12)C(=O)N[C@@H](CCC(N)=O)C(=O)N[C@@H](CS)C(=O)N[C@@H](Cc1ccc(O)cc1)C(=O)N[C@@H](Cc1c[nH]c2ccccc12)C(=O)N[C@@H](CC(C)C)C(=O)N[C@@H](CCCNC(=N)N)C(=O)N[C@@H](CC(C)C)C(=O)NCC(=O)N[C@@H](CC(=O)O)C(=O)N[C@@H](CCC(=O)O)C(=O)NCC(N)=O)[C@@H](C)O (Ac-CRTWQCYWLRLGDEG-NH2)
IC50 [2]: 483 nM

CC(=O)N[C@@H](CS)C(=O)N[C@@H](CCC(N)=O)C(=O)N[C@H](C(=O)N[C@@H](Cc1c[nH]c2ccccc12)C(=O)N[C@@H](CCC(N)=O)C(=O)N[C@@H](CS)C(=O)N[C@@H](Cc1ccc(O)cc1)C(=O)N[C@@H](Cc1c[nH]c2ccccc12)C(=O)N[C@@H](Cc1cccnc1)C(=O)N[C@@H](CCC(=O)O)C(=O)N[C@@H](CC(N)=O)C(=O)NCC(N)=O)[C@@H](C)O
IC50 [2]: 20 nM

CC(=O)N[C@@H](CS)C(=O)N[C@@H](CCC(N)=O)C(=O)N[C@H](C(=O)N[C@@H](Cc1c[nH]c2ccccc12)C(=O)N[C@@H](CCC(N)=O)C(=O)N[C@@H](CS)C(=O)N[C@@H](Cc1ccc(O)cc1)C(=O)N[C@@H](Cc1cccc2ccccc12)C(=O)N[C@@](C)(CC(C)C)C(=O)N[C@@H](CCC(=O)O)C(=O)N[C@@H](CC(N)=O)C(=O)NCC(N)=O)[C@@H](C)O
IC50 [2]: 67 nM

CC(=O)N[C@@H](CS)C(=O)N[C@@H](CCC(N)=O)C(=O)N[C@H](C(=O)N[C@@H](Cc1c[nH]c2ccccc12)C(=O)N[C@@H](CCC(N)=O)C(=O)N[C@@H](CS)C(=O)N[C@@H](Cc1ccc(O)cc1)C(=O)N[C@@H](Cc1cccc2ccccc12)C(=O)N[C@@H](CCC(C)C)C(=O)N[C@@H](CCC(=O)O)C(=O)N[C@@H](CC(N)=O)C(=O)NCC(N)=O)[C@@H](C)O
IC50 [2]: 37 nM

CC(=O)N[C@@H](CS)C(=O)N[C@@H](CCC(N)=O)C(=O)N[C@H](C(=O)N[C@@H](Cc1c[nH]c2ccccc12)C(=O)N[C@@H](CCC(N)=O)C(=O)N[C@@H](CS)C(=O)N[C@@H](Cc1ccc(O)cc1)C(=O)N[C@@H](Cc1c[nH]c2ccccc12)C(=O)NC(C)(C)C(=O)N[C@@H](CCC(=O)O)C(=O)N[C@@H](CC(N)=O)C(=O)NCC(N)=O)[C@@H](C)O
IC50 [2]: 34 nM

CC(=O)N[C@@H](CS)C(=O)N[C@@H](CCC(N)=O)C(=O)N[C@H](C(=O)N[C@@H](Cc1c[nH]c2ccccc12)C(=O)N[C@@H](CCC(N)=O)C(=O)N[C@@H](CS)C(=O)N[C@@H](Cc1ccc(O)cc1)C(=O)N[C@@H](Cc1ccc(-c2ccccc2)cc1)C(=O)N[C@@H](CCC(C)C)C(=O)N[C@@H](CCC(=O)O)C(=O)N[C@@H](CC(N)=O)C(=O)NCC(N)=O)[C@@H](C)O
IC50 [2]: 51 nM

C[C@@H](O)[C@H](NC(=O)[C@H](CCC(N)=O)NC(=O)[C@@H](N)CS)C(=O)N[C@@H](Cc1c[nH]c2ccccc12)C(=O)N[C@@H](CCC(N)=O)C(=O)N[C@@H](CS)C(=O)N[C@@H](Cc1ccc(O)cc1)C(=O)N[C@@H](Cc1c[nH]c2ccccc12)C(=O)N[C@@H](CCCN)C(=O)N[C@@H](CN)C(=O)N[C@@H](Cc1ccccc1)C(=O)NCC(=O)NCCOCC(=O)N[C@H](CCCCN)C(N)=O
IC50 [2]: 276 nM

CC(=O)N[C@@H](Cc1ccccc1)C(=O)N[C@@H](CS)C(=O)N[C@@H](CCC(N)=O)C(=O)N[C@H](C(=O)N[C@@H](Cc1c[nH]c2ccccc12)C(=O)N[C@@H](CCC(N)=O)C(=O)N[C@@H](CS)C(=O)N[C@@H](Cc1ccc(O)cc1)C(=O)N[C@@H](Cc1c[nH]c2ccccc12)C(=O)N[C@@H](CCC(C)C)C(=O)N[C@@H](CCC(=O)O)C(=O)N[C@@H](CC(N)=O)C(=O)NCC(N)=O)[C@@H](C)O
IC50 [2]: 25 nM

CC(=O)N[C@@H](CS)C(=O)N[C@@H](CCCNC(=N)N)C(=O)N[C@H](C(=O)N[C@@H](Cc1c[nH]c2ccccc12)C(=O)N[C@@H](CCC(N)=O)C(=O)N[C@@H](CS)C(=O)N[C@@H](Cc1ccc(O)cc1)C(=O)N[C@@H](Cc1c[nH]c2ccccc12)C(=O)N[C@@H](CO)C(=O)N[C@@H](CCC(=O)O)C(=O)N[C@@H](Cc1ccccc1)C(=O)NCC(=O)N[C@H](C(=O)NCC(=O)N[C@@H](CCC(=O)O)C(N)=O)[C@@H](C)O)[C@@H](C)O (Ac-CRTWQCYWSEFGTGE-NH2)
IC50 [2]: 778 nM

CC(=O)N[C@@H](CS)C(=O)N[C@@H](C)C(=O)N[C@@H](CC(=O)O)C(=O)N[C@@H](Cc1c[nH]c2ccccc12)C(=O)N[C@H](C(=O)N[C@@H](CS)C(=O)N[C@@H](Cc1ccc(O)cc1)C(=O)N[C@@H](Cc1c[nH]c2ccccc12)C(=O)N[C@@H](CCCNC(=N)N)C(=O)N[C@@H](CCCCN)C(=O)N[C@@H](Cc1ccccc1)C(=O)NCC(=O)NCCC(=O)N[C@H](CCCCN)C(N)=O)C(C)C
IC50 [2]: 33 nM

CC(=O)N[C@@H](CS)C(=O)N[C@@H](CCC(N)=O)C(=O)N[C@H](C(=O)N[C@@H](Cc1c[nH]c2ccccc12)C(=O)N[C@@H](CCC(N)=O)C(=O)N[C@@H](CS)C(=O)N[C@@H](Cc1cccc2ccccc12)C(=O)N[C@@H](Cc1ccc2ccccc2c1)C(=O)N[C@@H](CCC(C)C)C(=O)N[C@@H](CCC(=O)O)C(=O)N[C@@H](CC(N)=O)C(=O)NCC(N)=O)[C@@H](C)O
IC50 [2]: 125 nM

CC(=O)N[C@@H](CS)C(=O)N[C@H](C(=O)N[C@H](C(=O)N[C@@H](Cc1c[nH]c2ccccc12)C(=O)N[C@@H](CCC(N)=O)C(=O)N[C@@H](CS)C(=O)N[C@@H](Cc1ccc(O)cc1)C(=O)N[C@@H](Cc1c[nH]c2ccccc12)C(=O)N[C@@H](CCC(C)C)C(=O)N[C@@H](CCC(=O)O)C(=O)N[C@@H](CC(N)=O)C(=O)NCC(N)=O)[C@@H](C)O)[C@@H](C)O (Ac-CTTWQCYW[hLeu]ENG-NH2)
IC50 [2]: 28 nM

CC(=O)N[C@@H](CS)C(=O)N[C@@H](CCC(N)=O)C(=O)N[C@H](C(=O)N[C@@H](Cc1c[nH]c2ccccc12)C(=O)N[C@@H](CCC(N)=O)C(=O)N[C@@H](CS)C(=O)N[C@@H](Cc1ccc(O)cc1)C(=O)N[C@@H](Cc1c[nH]c2ccccc12)C(=O)N[C@@H](CCC(C)C)C(=O)N[C@@H](CCC(=O)O)C(=O)N[C@@H](CC(N)=O)C(=O)N[C@@H](Cc1ccccc1)C(N)=O)[C@@H](C)O
IC50 [2]: 182 nM

CC(=O)N[C@@H](CS)C(=O)N[C@@H](CCC(N)=O)C(=O)N[C@H](C(=O)N[C@@H](Cc1c[nH]c2ccccc12)C(=O)N[C@@H](CCC(N)=O)C(=O)N[C@@H](CS)C(=O)N[C@@H](Cc1ccc(O)cc1)C(=O)N[C@@H](Cc1c[nH]c2ccccc12)C(=O)N[C@@H](CCC(C)C)C(=O)N[C@@H](CCC(=O)O)C(=O)N[C@@H](CC(N)=O)C(=O)NCC(=O)NCC(N)=O)[C@@H](C)O
IC50 (Interleukin-23 receptor [1]): 61 to 362 nM | IC50 [2]: 140 nM

CC(=O)N[C@@H](CC(C)C)C(=O)N[C@@H](CS)C(=O)N[C@@H](CCC(N)=O)C(=O)N[C@H](C(=O)N[C@@H](Cc1c[nH]c2ccccc12)C(=O)N[C@@H](CCC(N)=O)C(=O)N[C@@H](CS)C(=O)N[C@@H](Cc1ccc(O)cc1)C(=O)N[C@@H](Cc1c[nH]c2ccccc12)C(=O)N[C@@H](CCC(C)C)C(=O)N[C@@H](CCC(=O)O)C(=O)N[C@@H](CC(N)=O)C(=O)NCC(N)=O)[C@@H](C)O
IC50 [2]: 26 nM

CC(=O)N[C@@H](CS)C(=O)N[C@@H](CC(N)=O)C(=O)N[C@H](C(=O)N[C@@H](Cc1c[nH]c2ccccc12)C(=O)N[C@@H](CCC(N)=O)C(=O)N[C@@H](CS)C(=O)N[C@@H](Cc1ccc(O)cc1)C(=O)N[C@@H](Cc1c[nH]c2ccccc12)C(=O)N[C@@H](CCCNC(=N)N)C(=O)N[C@H](C(=O)N[C@@H](Cc1ccccc1)C(=O)NCC(=O)NCCOCC(=O)N[C@H](CCCCN)C(N)=O)C(C)C)[C@@H](C)O
IC50 [2]: 79 nM
